Laboratory results taken from ChEMBL document CHEMBL5528061, “Development of Potent MALT1 Inhibitors Featuring a Novel "2-Thioxo-2,3-dihydrothiazolo[4,5-d]pyrimidin-7(6H)-one" Scaffold for the Treatment of B Cell Lymphoma” (J Med Chem, 2024).

Target: Vascular endothelial growth factor receptor 1 (Homo sapiens) (UniProt P17948)
Experiment: Inhibition of VEGFR1 (unknown origin) at 10 uM relative to control

Sequence of Vascular endothelial growth factor receptor 1 (Homo sapiens) (P17948 whole entry): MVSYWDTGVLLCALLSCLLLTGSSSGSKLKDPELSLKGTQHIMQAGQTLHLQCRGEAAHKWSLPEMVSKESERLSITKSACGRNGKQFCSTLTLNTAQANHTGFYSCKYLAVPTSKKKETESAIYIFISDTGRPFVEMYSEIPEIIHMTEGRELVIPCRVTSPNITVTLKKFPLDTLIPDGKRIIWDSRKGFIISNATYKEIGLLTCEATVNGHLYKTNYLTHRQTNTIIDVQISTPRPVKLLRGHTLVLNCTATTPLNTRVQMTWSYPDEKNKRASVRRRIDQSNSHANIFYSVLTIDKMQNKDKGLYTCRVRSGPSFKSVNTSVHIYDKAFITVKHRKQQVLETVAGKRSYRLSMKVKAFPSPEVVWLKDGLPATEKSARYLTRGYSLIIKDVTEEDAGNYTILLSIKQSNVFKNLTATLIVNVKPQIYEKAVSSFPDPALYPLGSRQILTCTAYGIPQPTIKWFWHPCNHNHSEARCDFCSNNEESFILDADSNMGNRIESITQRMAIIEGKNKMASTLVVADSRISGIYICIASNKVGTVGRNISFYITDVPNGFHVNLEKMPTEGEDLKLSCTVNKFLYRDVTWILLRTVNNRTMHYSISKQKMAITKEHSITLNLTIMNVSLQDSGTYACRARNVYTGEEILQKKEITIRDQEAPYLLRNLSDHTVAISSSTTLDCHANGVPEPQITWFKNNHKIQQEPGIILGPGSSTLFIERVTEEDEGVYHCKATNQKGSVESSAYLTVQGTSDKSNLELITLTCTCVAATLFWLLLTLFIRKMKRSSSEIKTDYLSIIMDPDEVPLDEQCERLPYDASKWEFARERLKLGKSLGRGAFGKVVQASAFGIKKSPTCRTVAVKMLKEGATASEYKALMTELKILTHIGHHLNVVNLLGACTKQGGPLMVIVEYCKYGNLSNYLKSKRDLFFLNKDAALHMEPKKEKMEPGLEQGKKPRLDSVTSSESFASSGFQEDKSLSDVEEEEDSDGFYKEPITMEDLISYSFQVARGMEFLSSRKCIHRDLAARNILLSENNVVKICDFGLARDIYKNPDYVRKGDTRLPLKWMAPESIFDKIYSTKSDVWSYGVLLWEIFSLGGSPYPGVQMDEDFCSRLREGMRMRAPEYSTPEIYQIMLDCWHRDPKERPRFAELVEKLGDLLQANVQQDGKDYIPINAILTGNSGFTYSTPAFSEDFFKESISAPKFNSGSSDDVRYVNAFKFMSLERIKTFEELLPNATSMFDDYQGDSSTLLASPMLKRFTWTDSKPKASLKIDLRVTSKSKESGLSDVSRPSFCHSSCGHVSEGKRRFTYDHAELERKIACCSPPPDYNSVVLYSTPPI

inhibition: < 30%
SMILES: COc1ccc(OC)c(-n2c(CBr)nc3c(sc(=S)n3-c3cccc(Cl)c3)c2=O)c1
